The source of these data is US20250002435A1, “ARYLATED FENCHONE DERIVATIVES, COMPOSITIONS COMPRISING THEM, PROCESSES FOR THEIR PREPARATION AND USES THEREOF” (priority 2021, published 2025).

In series [1] the test system is medial meniscal tear (MMT) post-traumatic OA. Put plainly: rat medial meniscal tear (MMT) model, body weight and dynamic weight bearing. The format is in vivo. The protocol: Initially, the required amount of HU308 dissolved in ethanol followed by addition of […] with vigorous mechanical agitation to form viscous micelle solution. Finally, the micelle solution was diluted in ice cold saline for injection or culture assays. Vehicle solution consisted of ethanol, cremophor and saline at 1:1:18 ratio. For intra-articular (IA) dosing 50 μL was injected into the tibiofemoral joint, at two doses; 8 and 24 μg/mL. Vehicle control contained 1:1:18 ethanol/Cremophor/saline, while positive control was of IA administered 60 μg/mL FGF-18 (R&D Systems, catalogue No. 8988-F18-050, lot No. BVE0521071) for IA dosing at 50 μL/knee.
(§1) The rat OA model employed was surgically-induced medial meniscal tear (MMT), wherein rats were anesthetized with Isoflurane (VetOne, catalogue No. 502017), and the right knee area was prepared for surgery. A skin incision was made over the medial aspect of the knee, and the medial collateral ligament was exposed by blunt dissection and then transected. The medial meniscus was cut through the full thickness to simulate a complete tear. Skin and subcutis were closed with 4-0 Coated Vicryl (polyglactin 910) Violet Braided Suture (Ethicon, catalogue No. J399H), and slight hand pressure was applied to the wound for approximately 3 minutes for hemostasis. Subcutaneous (SC) dose of buprenorphine (0.05 mg/kg) administered after the animal awakened post-surgery. Rats were weighed daily on study days −1 through 7 and again on days 14, 21, and 28 (prior to necropsy). […] The animals were euthanized for necropsy 28 days post-surgery, following Isoflurane anesthesia, and bled to exsanguination followed by bilateral pneumothorax.

Series [2] shares this test system. Put plainly: rat MMT model, histopathology of medial tibial joint 28 days post MMT. In kind it is in vivo. Particulars: for osteophyte measurements and scores: vs vehicle. The method, then:
as §1
Right knees were collected from all animals and trimmed of muscle and patellae. The trimmed joints were placed in 10% neutral buffered formalin (NBF) for histologic processing and evaluation. Samples were fixed for 3 days in 4% paraformaldehyde and decalcified for 21 days in 10% EDTA, pH=7.5. Then following dehydration in a graded series of ethanol washes, joints were embedded in paraffin and sectioned to 7 μm slices, following trimming off 1 mm until the tibiofemoral compartments are fully observed. Sections were obtained from each knee and stained with toluidine blue (0.04% in 0.2 M acetate buffer, Ph=4.0), based on a modified version of the methods used in Schmitz, et al. (2010), (11). Histopathology was carried out using an ocular micrometer. The following structural histological characterization was carried out:
Regional differences across the tibial plateau were taken into consideration by dividing each section into three zones: (1) outside, (2) middle, and (3) inside. In the surgical OA model, the outside (zone-1) and middle (zone-2) thirds are most severely affected, and milder changes are present on the inside third (zone 3). When zones were scored individually, scores were assigned based on percent area of the zone affected. General cartilage degeneration including chondrocyte death/loss, proteoglycan (PG) loss, and collagen loss or fibrillation. Zones were scored individually (0-5; 5 representing sever damage; SD3), and a sum of all three zones was calculated (termed “Total Joint scores”).
The zone related cartilage depth is calculated from the projected articular surface tot the tidemark. Reduced ratios embody less detected cartilage width vs projected cartilage with area, per zone.
Osteophyte thickness (tidemark to furthest point extending toward synovium) was measured and scored according to a range from 0-5, as in SD4.
Damage to the calcified cartilage layer and subchondral bone was scored using the criteria in SD5. Generally damage was considered as invagination of deep zone cartilage into the subchondral bone layer.
[…] Descriptions of other changes (typically fibrosis, or acute inflammation/neutrophil infiltration extending into the lateral compartment usually associated with IA treatments) were also provided, if present.

With `CCCCCCC(C)(C)c1cc(OC)c([C@]2(O)C3(C)CCC(C3)C2(C)C)c(OC)c1` (stereo partly shown) [Compound 1d, 2-(2,6′-dimethoxy-4′-(2″-methyloctan-2″-yl)phenyl)-1,3,3-trimethyl-bicyclo[2.2.1]heptan-2-ol], in series [1] (1D high dose 24 μg/mL IA), the “dynamic weight bearing, left to right load bearing” value was “statistically insignificant levels vs sham and vehicle”. The “change in rat weight from 4 days to 28 days post MMT” value in series [1] (1D high dose 24 μg/mL IA, vs Vehicle and FGF18 groups) is given as “slight but significant increase”. In addition, the “dynamic weight bearing, left to right load bearing” value in series [1] (1D low dose 8 μg/mL IA) is “increased left to right lad bearing vs sham”. For the same compound, in series [2] (1D high dose 24 μg/mL IA), the “mean zonal depth ratios” value is reported as “reduced depth ratios”; the “zone 3 cartilage degeneration score” value was “less degeneration scores which were statistically significant”; the “osteophyte measurements and scores” value is “didn't display any differences”. The “total zonal cartilage degeneration scores” value in series [2] (1D high dose 24 μg/mL IA, vs 1D low dose and Vehicle) is reported as “significantly reduced degenerative scores”. For the same compound, in series [2] (1D low dose 8 μg/mL IA), the synovitis scores result is “higher”; the “zone 3 cartilage degeneration score” value is recorded as “less degeneration scores which were statistically significant”; the “osteophyte measurements and scores” value was “didn't display any differences”.
